Results published in ChEMBL document CHEMBL1201862, “PubChem BioAssay data set” (2004).
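Results reflect a 48-hour exposure of cells in 96-well plates to compound at five concentrations. GI50 = concentration required for 50% inhibition of growth.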 The source made the active and inactive calls. Cut-off read from the data, not from the text of the source: active = GI50 up to about 1.1 µM and inactive = higher.

Assays:
Assay in all cases: DTP human tumour cell line panel, 48 h
[1] = system: UACC-62
[2] = system: MDA-N
[3] = system: MCF7
[4] = system: Malme-3M
[5] = system: HCT-15
[6] = system: UO-31
[7] = system: COLO 205
[8] = system: 786-0
[9] = system: NCI-H522
[10] = system: MOLT-4
[11] = system: MDA-MB-231
[12] = system: NCI-H460
[13] = system: SF-295
[14] = system: HCC 2998
[15] = system: OVCAR-3
[16] = system: HOP-62
[17] = system: IGROV-1
[18] = system: SNB-75
[19] = system: A498
[20] = system: SR
[21] = system: KM12
[22] = system: T47D
[23] = system: OVCAR-5
[24] = system: SF-268
[25] = system: BT-549
[26] = system: CAKI-1
[27] = system: SK-MEL-28
[28] = system: CCRF-CEM
[29] = system: SF-539
[30] = system: RXF 393
[31] = system: SW-620
[32] = system: OVCAR-8
[33] = system: HT-29
[34] = system: SN12C
[35] = system: NCI-H23
[36] = system: OVCAR-4
[37] = system: DU-145
[38] = system: SK-OV-3
[39] = system: K562
[40] = system: LOX IMVI
[41] = system: UACC-257
[42] = system: HL-60
[43] = system: HCT-116
[44] = system: SK-MEL-5
[45] = system: ACHN
[46] = system: TK-10
[47] = system: HOP-92
[48] = system: U-251
[49] = system: NCI-H226
[50] = system: MDA-MB-435
[51] = system: EKVX
[52] = system: A549
[53] = system: SK-MEL-2
[54] = system: M14
[55] = system: Hs-578T
[56] = system: NCI/ADR-RES
[57] = system: SNB-19
[58] = system: PC-3

**Q.** With S=C1NCCN1C(=S)Nc1ccccc1 as the compound, how does the GI50 [1] read?
**A.** 96.8 µM (inactive)

**Q.** What about the GI50 [2] of the same compound?
**A.** > 100 µM (inactive)

**Q.** And the GI50 [3]?
**A.** > 100 µM (inactive)

**Q.** What about the GI50 [4] of the same compound?
**A.** > 100 µM (inactive)

**Q.** What about the GI50 [5] of the same compound?
**A.** 68.9 µM

**Q.** What about the GI50 [6] of the same compound?
**A.** 36.7 µM (inactive)

**Q.** What about the GI50 [7] of the same compound?
**A.** 71.6 µM (inactive)

**Q.** And the GI50 [8]?
**A.** > 100 µM (inactive)

**Q.** What about the GI50 [9] of the same compound?
**A.** 60.8 µM (inactive)

**Q.** What about the GI50 [10] of the same compound?
**A.** 34.8 µM (inactive)

**Q.** What about the GI50 [11] of the same compound?
**A.** > 100 µM (inactive)

**Q.** And the GI50 [12]?
**A.** 89.5 µM (inactive)

**Q.** And the GI50 [13]?
**A.** > 100 µM (inactive)

**Q.** What about the GI50 [14] of the same compound?
**A.** 65.5 µM (inactive)

**Q.** And the GI50 [15]?
**A.** 90.8 µM (inactive)

**Q.** What about the GI50 [16] of the same compound?
**A.** > 100 µM (inactive)

**Q.** And the GI50 [17]?
**A.** > 100 µM (inactive)

**Q.** And the GI50 [18]?
**A.** 32.4 µM (inactive)

**Q.** And the GI50 [19]?
**A.** 32.4 µM (inactive)

**Q.** And the GI50 [20]?
**A.** 42.4 µM (inactive)

**Q.** What about the GI50 [21] of the same compound?
**A.** 49.9 µM (inactive)

**Q.** And the GI50 [22]?
**A.** 40.1 µM (inactive)

**Q.** What about the GI50 [23] of the same compound?
**A.** > 100 µM (inactive)

**Q.** What about the GI50 [24] of the same compound?
**A.** 99.5 µM (inactive)

**Q.** What about the GI50 [25] of the same compound?
**A.** 83 µM (inactive)

**Q.** What about the GI50 [26] of the same compound?
**A.** 46.8 µM (inactive)

**Q.** What about the GI50 [27] of the same compound?
**A.** 56.2 µM (inactive)

**Q.** And the GI50 [28]?
**A.** 62.2 µM (inactive)

**Q.** And the GI50 [29]?
**A.** 46.3 µM (inactive)

**Q.** And the GI50 [30]?
**A.** 10.5 µM (inactive)

**Q.** What about the GI50 [31] of the same compound?
**A.** > 100 µM (inactive)

**Q.** And the GI50 [32]?
**A.** > 100 µM (inactive)

**Q.** And the GI50 [33]?
**A.** > 100 µM (inactive)

**Q.** What about the GI50 [34] of the same compound?
**A.** > 100 µM (inactive)

**Q.** And the GI50 [35]?
**A.** 60.4 µM (inactive)

**Q.** And the GI50 [36]?
**A.** 21.9 µM (inactive)

**Q.** And the GI50 [37]?
**A.** > 100 µM (inactive)

**Q.** And the GI50 [38]?
**A.** > 100 µM (inactive)

**Q.** And the GI50 [39]?
**A.** 74.6 µM (inactive)

**Q.** And the GI50 [40]?
**A.** > 100 µM (inactive)

**Q.** And the GI50 [41]?
**A.** 96.2 µM (inactive)

**Q.** And the GI50 [42]?
**A.** > 100 µM (inactive)

**Q.** And the GI50 [43]?
**A.** 91.2 µM (inactive)

**Q.** What about the GI50 [44] of the same compound?
**A.** > 100 µM (inactive)

**Q.** What about the GI50 [45] of the same compound?
**A.** > 100 µM (inactive)

**Q.** And the GI50 [46]?
**A.** 95.9 µM (inactive)

**Q.** And the GI50 [47]?
**A.** 66.8 µM (inactive)

**Q.** What about the GI50 [48] of the same compound?
**A.** > 100 µM (inactive)

**Q.** And the GI50 [49]?
**A.** 51.4 µM (inactive)

**Q.** And the GI50 [50]?
**A.** 46.5 µM (inactive)

**Q.** And the GI50 [51]?
**A.** 33.9 µM (inactive)

**Q.** What about the GI50 [52] of the same compound?
**A.** 44.1 µM (inactive)

**Q.** And the GI50 [53]?
**A.** > 100 µM (inactive)

**Q.** What about the GI50 [54] of the same compound?
**A.** 61.5 µM (inactive)

**Q.** What about the GI50 [55] of the same compound?
**A.** 84.1 µM (inactive)

**Q.** What about the GI50 [56] of the same compound?
**A.** > 100 µM (inactive)

**Q.** With CC(C)(C)C(=O)c1c(O)c2ccccc2c2ccccc2c1=O as the compound, how does the GI50 [1] read?
**A.** 76.4 µM (inactive)

**Q.** What about the GI50 [2] of the same compound?
**A.** > 100 µM (inactive)

**Q.** And the GI50 [3]?
**A.** > 100 µM (inactive)

**Q.** What about the GI50 [5] of the same compound?
**A.** 64.4 µM

**Q.** What about the GI50 [6] of the same compound?
**A.** 33.2 µM (inactive)

**Q.** And the GI50 [7]?
**A.** > 100 µM (inactive)

**Q.** What about the GI50 [8] of the same compound?
**A.** > 100 µM (inactive)

**Q.** And the GI50 [57]?
**A.** > 100 µM (inactive)

**Q.** What about the GI50 [9] of the same compound?
**A.** 23.7 µM (inactive)

**Q.** And the GI50 [10]?
**A.** > 100 µM (inactive)

**Q.** And the GI50 [11]?
**A.** > 100 µM (inactive)

**Q.** And the GI50 [12]?
**A.** > 100 µM (inactive)

**Q.** And the GI50 [13]?
**A.** 48.6 µM (inactive)

**Q.** And the GI50 [15]?
**A.** 59.2 µM (inactive)

**Q.** What about the GI50 [16] of the same compound?
**A.** 82.2 µM (inactive)

**Q.** And the GI50 [18]?
**A.** 30.9 µM (inactive)

**Q.** And the GI50 [19]?
**A.** 50.6 µM (inactive)

**Q.** What about the GI50 [21] of the same compound?
**A.** 79.3 µM (inactive)

**Q.** What about the GI50 [22] of the same compound?
**A.** 52.1 µM (inactive)

**Q.** And the GI50 [23]?
**A.** > 100 µM (inactive)

**Q.** What about the GI50 [24] of the same compound?
**A.** > 100 µM (inactive)

**Q.** And the GI50 [25]?
**A.** 32.4 µM (inactive)

**Q.** And the GI50 [26]?
**A.** > 100 µM (inactive)

**Q.** What about the GI50 [27] of the same compound?
**A.** 58.7 µM (inactive)

**Q.** What about the GI50 [28] of the same compound?
**A.** > 100 µM (inactive)

**Q.** And the GI50 [29]?
**A.** > 100 µM (inactive)

**Q.** And the GI50 [31]?
**A.** > 100 µM (inactive)

**Q.** What about the GI50 [32] of the same compound?
**A.** 82.6 µM (inactive)

**Q.** What about the GI50 [33] of the same compound?
**A.** 49.7 µM (inactive)

**Q.** And the GI50 [34]?
**A.** > 100 µM (inactive)

**Q.** What about the GI50 [35] of the same compound?
**A.** 41 µM (inactive)

**Q.** And the GI50 [36]?
**A.** 62.1 µM (inactive)

**Q.** And the GI50 [37]?
**A.** > 100 µM (inactive)

**Q.** What about the GI50 [38] of the same compound?
**A.** > 100 µM (inactive)

**Q.** What about the GI50 [40] of the same compound?
**A.** 47.8 µM (inactive)

**Q.** And the GI50 [41]?
**A.** > 100 µM (inactive)

**Q.** What about the GI50 [58] of the same compound?
**A.** > 100 µM (inactive)

**Q.** What about the GI50 [42] of the same compound?
**A.** > 100 µM (inactive)

**Q.** And the GI50 [43]?
**A.** > 100 µM (inactive)

**Q.** And the GI50 [44]?
**A.** > 100 µM (inactive)

**Q.** And the GI50 [45]?
**A.** > 100 µM (inactive)

**Q.** What about the GI50 [46] of the same compound?
**A.** 97.5 µM (inactive)

**Q.** And the GI50 [47]?
**A.** 32.4 µM (inactive)

**Q.** And the GI50 [48]?
**A.** 33.3 µM (inactive)

**Q.** What about the GI50 [49] of the same compound?
**A.** 49.4 µM (inactive)

**Q.** What about the GI50 [50] of the same compound?
**A.** > 100 µM (inactive)

**Q.** What about the GI50 [51] of the same compound?
**A.** > 100 µM (inactive)

**Q.** What about the GI50 [52] of the same compound?
**A.** > 100 µM (inactive)

**Q.** And the GI50 [53]?
**A.** > 100 µM (inactive)

**Q.** What about the GI50 [54] of the same compound?
**A.** 95.3 µM (inactive)

**Q.** And the GI50 [55]?
**A.** 85.7 µM (inactive)
